Values of other authors as cited in patent US20230225964A1, “MICROSTIRRING DEVICES AND TECHNIQUES FOR ENHANCING BIOAVAILABILITY OF ORALLY ADMINISTERED DRUGS” (The Regents of the University of California, priority 2022, published 2023).
Values after ≈ are worked out from the molar mass of the structure shown.

For `N[C@@H](Cc1ccc(O)c(O)c1)C(=O)O` [L-Dopa, levodopa], the solubility in water is given as 66 mg/mL (≈ 335 mM).
